PubChem BioAssay AID330 (DTP/NCI, 2004)
Where “and” joins values, the source holds several entries; their conditions need not be identical. Equal entries are not always repeated. Toxic doses and inconclusive results are not listed.

Tested on: P388 leukemia ip, CD2F1 mice, survival T/C
Test: NCI In Vivo Anticancer Drug Screen. Data for tumor model P388 Leukemia (intraperitoneal) in CD2F1 (CDF1) mice
Conditions: endpoint: median survival time, higher = longer survival
Method in brief: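 Mice carrying the transplanted tumor received test compound or vehicle. Survival was recorded in each group, and the value is the treated-group measurement divided by that of the vehicle-treated control group.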

[1] = dose: 50.0 mg/kg/injection, schedule: Q01DX005 (ip), vehicle: saline with Tween-80
[2] = dose: 100.0 mg/kg/injection, schedule: Q01DX005 (ip), vehicle: saline with Tween-80
[3] = dose: 200.0 mg/kg/injection, schedule: Q01DX005 (ip), vehicle: saline with Tween-80
[4] = dose: 50.0 mg/kg/injection, schedule: Q01DX009 (ip), vehicle: saline
[5] = dose: 12.5 mg/kg/injection, schedule: Q01DX009 (ip), vehicle: saline with Tween-80
[6] = dose: 25.0 mg/kg/injection, schedule: Q01DX009 (ip), vehicle: saline with Tween-80
[7] = dose: 50.0 mg/kg/injection, schedule: Q01DX009 (ip), vehicle: saline with Tween-80
[8] = dose: 100.0 mg/kg/injection, schedule: Q01DX009 (ip), vehicle: saline with Tween-80
[9] = dose: 200.0 mg/kg/injection, schedule: Q01DX009 (ip), vehicle: saline with Tween-80
[10] = dose: 50.0 mg/kg/injection, schedule: Q01DX009 (ip), vehicle: Klucel (hydroxypropylcellulose) (HPC)
[11] = dose: 100.0 mg/kg/injection, schedule: Q01DX009 (ip), vehicle: Klucel (hydroxypropylcellulose) (HPC)
[12] = dose: 60.0 mg/kg/injection, schedule: Q01DX005 (ip), vehicle: Klucel (hydroxypropylcellulose) (HPC)
[13] = dose: 120.0 mg/kg/injection, schedule: Q01DX005 (ip), vehicle: Klucel (hydroxypropylcellulose) (HPC)
[14] = dose: 240.0 mg/kg/injection, schedule: Q01DX005 (ip), vehicle: Klucel (hydroxypropylcellulose) (HPC)
[15] = dose: 50.0 mg/kg/injection, schedule: Q01DX005 (ip), vehicle: Klucel (hydroxypropylcellulose) (HPC)
[16] = dose: 100.0 mg/kg/injection, schedule: Q01DX005 (ip), vehicle: Klucel (hydroxypropylcellulose) (HPC)
[17] = dose: 200.0 mg/kg/injection, schedule: Q01DX005 (ip), vehicle: Klucel (hydroxypropylcellulose) (HPC)

CS(=O)CC(C)(O)C1OC(=O)C=C2C3(C)CC4OC4C4(C)C(=O)OC(C34)C3OC231 (stereo not drawn)
T/C (dose: 2.5 mg/kg/injection, schedule: Q01DX009 (ip), vehicle: DMSO): 108 % of control
T/C (dose: 20.0 mg/kg/injection, schedule: Q01DX009 (ip), vehicle: DMSO): 151 % of control

CC(=O)C(c1ccccc1)[N+](C)(C)C (stereo not drawn)
T/C (dose: 25.0 mg/kg/injection, schedule: Q04DX003 (ip), vehicle: other): 100 % of control
T/C (dose: 50.0 mg/kg/injection, schedule: Q04DX003 (ip), vehicle: other): 100 % of control
T/C (dose: 100.0 mg/kg/injection, schedule: Q04DX003 (ip), vehicle: other): 98 % of control

NNC(=O)SCCC(=O)O
T/C [1]: 97 % of control
T/C [2]: 97 % of control
T/C [3]: 101 % of control

COc1ccccc1-n1s/c(=N\OC(=O)c2sc3ccccc3c2Cl)sc1=S
T/C [4]: 93 % of control
T/C (dose: 100.0 mg/kg/injection, schedule: Q01DX009 (ip), vehicle: saline): 94 % of control
T/C (dose: 200.0 mg/kg/injection, schedule: Q01DX009 (ip), vehicle: saline): 94 % of control

CC1(C)COC(c2cc(Br)ccc2Br)=N1
T/C [5]: 100 % of control
T/C [6]: 102 % of control
T/C [7]: 97 % of control
T/C [8]: 97 % of control
T/C [9]: 101 % of control

CCN(CC)CCCNc1c(O)cc(C)c2sc3ccccc3c(=O)c12
T/C [7]: 94 % of control
T/C [8]: 94 % of control
T/C [9]: 100 % of control

O=C(Nc1ccccc1)Oc1ccc[nH]c1=O
T/C (dose: 25.0 mg/kg/injection, schedule: Q01DX009 (ip), vehicle: Klucel (hydroxypropylcellulose) (HPC)): 117 % of control and 122 % of control
T/C (dose: 25.0 mg/kg/injection, schedule: Q01DX009 (ip), vehicle: saline): 113 % of control and 120 % of control
T/C [10]: 117 % of control and 123 % of control
T/C [4]: 118 % of control
T/C [11]: 87 % of control

CC(=O)NC#N.CCN(CC)CC.[CH-]1CCCCC1.[CH-]1CCCCC1.[CH-]1CCCCC1.[Cl-].[Sn+4]
T/C (dose: 3.12 mg/kg/injection, schedule: Q01DX005 (ip), vehicle: saline with Tween-80): 106 % of control
T/C (dose: 6.25 mg/kg/injection, schedule: Q01DX005 (ip), vehicle: saline with Tween-80): 105 % of control

Nc1ccccc1S(=O)(=O)Nc1c(N)[nH]c(=S)[nH]c1=O
T/C [12]: 105 % of control
T/C [13]: 99 % of control
T/C [14]: 113 % of control

O=C(O)C1CCCC2C(O)CCC(=O)C12 (stereo not drawn)
T/C (dose: 100.0 mg/kg/injection, schedule: Q04DX003 (ip), vehicle: saline): 105 % of control
T/C (dose: 200.0 mg/kg/injection, schedule: Q04DX003 (ip), vehicle: saline): 110 % of control
T/C (dose: 400.0 mg/kg/injection, schedule: Q04DX003 (ip), vehicle: saline): 105 % of control

CCCCOC(=O)/C=C(\Cl)C(=O)OCCCC
T/C [5]: 102 % of control and 106 % of control and 111 % of control
T/C [6]: 111 % of control and 114 % of control and 118 % of control
T/C [8]: 86 % of control

Clc1ccccc1/C=C/c1ccnnc1
T/C (dose: 25.0 mg/kg/injection, schedule: Q01DX001 (ip), vehicle: saline): 96 % of control
T/C (dose: 50.0 mg/kg/injection, schedule: Q01DX001 (ip), vehicle: saline): 95 % of control
T/C (dose: 100.0 mg/kg/injection, schedule: Q01DX001 (ip), vehicle: saline): 95 % of control
T/C (dose: 100.0 mg/kg/injection, schedule: Q01DX001 (ip), vehicle: suspension in saline): 101 % of control
T/C (dose: 200.0 mg/kg/injection, schedule: Q01DX001 (ip), vehicle: suspension in saline): 97 % of control
T/C (dose: 400.0 mg/kg/injection, schedule: Q01DX001 (ip), vehicle: suspension in saline): 97 % of control

CCOc1ccc2nc([NH-])sc2c1.CCOc1ccc2nc([NH-])sc2c1.CCOc1ccc2nc([NH-])sc2c1.CCOc1ccc2nc([NH-])sc2c1.[Cl][Rh][Cl]
T/C (dose: 12.5 mg/kg/injection, schedule: Q01DX001 (ip), vehicle: DMSO): 102 % of control
T/C (dose: 25.0 mg/kg/injection, schedule: Q01DX001 (ip), vehicle: DMSO): 102 % of control and 105 % of control
T/C (dose: 50.0 mg/kg/injection, schedule: Q01DX001 (ip), vehicle: DMSO): 107 % of control and 94 % of control
T/C (dose: 100.0 mg/kg/injection, schedule: Q01DX001 (ip), vehicle: DMSO): 113 % of control and 124 % of control and 91 % of control

Cc1ccc(OP(=O)(Oc2ccc(C)cc2)Oc2ccc(C)cc2)cc1.Cc1ccc(OP(=O)(Oc2ccc(C)cc2)Oc2ccc(C)cc2)cc1.Cc1ccc(OP(=O)(Oc2ccc(C)cc2)Oc2ccc(C)cc2)cc1.Cc1ccc(OP(=O)(Oc2ccc(C)cc2)Oc2ccc(C)cc2)cc1.[O-][Cl+3]([O-])([O-])O.[Zn+2]
T/C (dose: 100.0 mg/kg/injection, schedule: Q04DX003 (ip), vehicle: Klucel (hydroxypropylcellulose) (HPC)): 98 % of control
T/C (dose: 200.0 mg/kg/injection, schedule: Q04DX003 (ip), vehicle: Klucel (hydroxypropylcellulose) (HPC)): 102 % of control

C#CC(O)(c1ccccc1)c1ccc(N2CCOCC2)cc1 (stereo not drawn)
T/C [6]: 95 % of control
T/C [7]: 98 % of control
T/C [8]: 98 % of control
T/C [9]: 97 % of control

CCSSc1ccccc1C(=O)O
T/C [15]: 102 % of control
T/C [16]: 109 % of control
T/C [17]: 112 % of control

CCCCC(=O)N1SC(NC(=O)OC)=Nc2ccccc21
T/C [15]: 101 % of control
T/C [16]: 100 % of control
T/C [17]: 109 % of control

Cc1cc(C(=O)N/N=C/c2cc(Cl)cc(Cl)c2O)c2cc(Br)ccc2n1
T/C [7]: 91 % of control
T/C [8]: 91 % of control
T/C [9]: 93 % of control

C=C[C@H]1[C@H](OC2OC(CO)C(O)C(O)C2O)OC=C2C(=O)OCC[C@H]21 (stereo partly drawn)
T/C (dose: 0.75 mg/kg/injection, schedule: Q01DX005 (ip), vehicle: water): 95 % of control
T/C (dose: 1.5 mg/kg/injection, schedule: Q01DX005 (ip), vehicle: water): 95 % of control
T/C (dose: 3.0 mg/kg/injection, schedule: Q01DX005 (ip), vehicle: water): 93 % of control
T/C (dose: 6.0 mg/kg/injection, schedule: Q01DX005 (ip), vehicle: water): 93 % of control

Fc1cccc(-c2nn[nH]n2)c1
T/C (dose: 100.0 mg/kg/injection, schedule: Q04DX002 (ip), vehicle: saline with Tween-80): 102 % of control
T/C (dose: 200.0 mg/kg/injection, schedule: Q04DX002 (ip), vehicle: saline with Tween-80): 107 % of control
T/C (dose: 400.0 mg/kg/injection, schedule: Q04DX002 (ip), vehicle: saline with Tween-80): 116 % of control

CCOC(C#CC(=O)C(C)C)OCC
T/C (dose: 60.0 mg/kg/injection, schedule: Q01DX005 (ip), vehicle: saline): 101 % of control
T/C (dose: 120.0 mg/kg/injection, schedule: Q01DX005 (ip), vehicle: saline): 98 % of control
T/C (dose: 240.0 mg/kg/injection, schedule: Q01DX005 (ip), vehicle: saline): 101 % of control

O=C(O)CSC(c1ccccc1)(c1ccc(-c2ccccc2)cc1)c1cccc2ccccc12 (stereo not drawn)
T/C [1]: 95 % of control
T/C [2]: 109 % of control
T/C [3]: 109 % of control

Cc1oc2c(C)c3oc(=O)cc(C)c3cc2c1CN
T/C (dose: 12.5 mg/kg/injection, schedule: Q01DX001 (ip), vehicle: Klucel (hydroxypropylcellulose) (HPC)): 111 % of control
T/C (dose: 25.0 mg/kg/injection, schedule: Q01DX001 (ip), vehicle: Klucel (hydroxypropylcellulose) (HPC)): 96 % of control

CS(=O)CC(Nc1ccccc1)c1ccccc1 (stereo not drawn)
T/C [12]: 108 % of control
T/C [13]: 95 % of control
T/C [14]: 87 % of control

O=C1C2C3C=CC(C3)C2C(=O)N1CNc1ccc2nc(SC3CCCC3)sc2c1 (stereo not drawn)
T/C [10]: 91 % of control
T/C [11]: 88 % of control

CCN(CC)CCCC(C)NC(=O)Nc1cc(OC)cc2cccnc12 (stereo not drawn)
T/C (dose: 12.5 mg/kg/injection, schedule: Q01DX005 (ip), vehicle: saline): 107 % of control
T/C (dose: 25.0 mg/kg/injection, schedule: Q01DX005 (ip), vehicle: saline): 108 % of control
T/C (dose: 50.0 mg/kg/injection, schedule: Q01DX005 (ip), vehicle: saline): 104 % of control and 106 % of control
